Reference: PubChem BioAssay (NCI)
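Test compounds were applied to cells in 96-well plates for 48 hours at 5 doses. GI50: concentration for 50% inhibition of growth. The concentration for full growth arrest is given as TGI.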

How the values were obtained:
Experiment in all cases: inhibition of tumour cell growth, NCI panel, 48 h
COLO 205 colon = tested on: COLO 205 colon
SR leukemia = tested on: SR leukemia
OVCAR-5 ovarian = tested on: OVCAR-5 ovarian
UO-31 renal = tested on: UO-31 renal
UACC-257 melanoma = tested on: UACC-257 melanoma
OVCAR-8 ovarian = tested on: OVCAR-8 ovarian
HCC-2998 colon = tested on: HCC-2998 colon
OVCAR-3 ovarian = tested on: OVCAR-3 ovarian
ACHN renal = tested on: ACHN renal
SNB-75 CNS = tested on: SNB-75 CNS

Question: What does the source list for COC(=O)c1c(O)ccc2c1c1c(n2Cc2cccc(C)c2)C(=O)c2ccccc2C1=O?
Answer: TGI (COLO 205 colon): 3.04 µM; TGI (SR leukemia): 21 µM; TGI (OVCAR-5 ovarian): 52.7 µM; TGI (UO-31 renal): 19.8 µM; TGI (UACC-257 melanoma): 31.2 µM; TGI (OVCAR-8 ovarian): 21.9 µM; TGI (HCC-2998 colon): 6.36 µM; TGI (OVCAR-3 ovarian): 22.8 µM; TGI (ACHN renal): 24.5 µM

Question: What does the source list for CCOC(=O)c1cnc2oc3ccc(O)cc3c2c1-c1ccccc1?
Answer: TGI (COLO 205 colon): > 100 µM; TGI (SR leukemia): > 100 µM; GI50 (SNB-75 CNS): 16.5 µM; TGI (SNB-75 CNS): 52.4 µM; TGI (OVCAR-5 ovarian): > 100 µM; TGI (UACC-257 melanoma): > 100 µM; TGI (OVCAR-8 ovarian): > 100 µM; TGI (HCC-2998 colon): > 100 µM; TGI (OVCAR-3 ovarian): > 100 µM; TGI (ACHN renal): > 100 µM

Question: Which TGI (COLO 205 colon) does the source give for Oc1c([Si](c2ccccc2)(c2ccccc2)c2ccccc2)cc2ccccc2c1-c1c(O)c([Si](c2ccccc2)(c2ccccc2)c2ccccc2)cc2ccccc12 here?
Answer: > 100 µM

Question: What about the TGI (SR leukemia) of the same molecule?
Answer: > 100 µM

Question: What about the TGI (SNB-75 CNS) of the same molecule?
Answer: > 100 µM

Question: What about the TGI (OVCAR-5 ovarian) of the same molecule?
Answer: > 100 µM

Question: And the TGI (UO-31 renal)?
Answer: > 100 µM

Question: What about the TGI (UACC-257 melanoma) of the same molecule?
Answer: > 100 µM

Question: What about the TGI (OVCAR-8 ovarian) of the same molecule?
Answer: > 100 µM

Question: And the TGI (HCC-2998 colon)?
Answer: > 100 µM

Question: And the TGI (ACHN renal)?
Answer: > 100 µM

Question: Which results are given for O=C(Cn1c(C(=O)/C=C/c2cccs2)nc2ccccc21)c1ccc(Cl)cc1?
Answer: TGI (COLO 205 colon): 38.3 µM; TGI (SR leukemia): 22 µM; TGI (SNB-75 CNS): > 100 µM; TGI (OVCAR-5 ovarian): > 100 µM; TGI (UO-31 renal): 69.6 µM; TGI (UACC-257 melanoma): 58.1 µM; TGI (HCC-2998 colon): 29.8 µM; TGI (OVCAR-3 ovarian): 57.3 µM; TGI (ACHN renal): > 100 µM

Question: With O=c1cc(N2CCN(c3cc(=O)n4ccccc4n3)CC2)oc2ccccc12 as the molecule, how does the TGI (COLO 205 colon) read?
Answer: > 100 µM

Question: What about the TGI (SNB-75 CNS) of the same molecule?
Answer: > 54.3 µM

Question: What about the TGI (OVCAR-5 ovarian) of the same molecule?
Answer: > 100 µM

Question: What about the TGI (UO-31 renal) of the same molecule?
Answer: > 70.9 µM

Question: And the TGI (UACC-257 melanoma)?
Answer: > 71.8 µM

Question: What about the TGI (OVCAR-8 ovarian) of the same molecule?
Answer: 96.9 µM

Question: And the TGI (HCC-2998 colon)?
Answer: > 100 µM

Question: What about the TGI (OVCAR-3 ovarian) of the same molecule?
Answer: > 100 µM

Question: What about the TGI (ACHN renal) of the same molecule?
Answer: > 100 µM

Question: How did the TGI (SR leukemia) turn out when O=C1c2cc3c(cc2CC12Cc1ccc4c(c1C2=O)CCCC4)CCCC3 (stereo not drawn) was run?
Answer: > 100 µM

Question: And the TGI (SNB-75 CNS)?
Answer: > 100 µM

Question: What about the TGI (OVCAR-5 ovarian) of the same molecule?
Answer: > 100 µM

Question: What about the TGI (UO-31 renal) of the same molecule?
Answer: > 100 µM

Question: And the TGI (UACC-257 melanoma)?
Answer: > 100 µM

Question: What about the TGI (OVCAR-8 ovarian) of the same molecule?
Answer: > 100 µM

Question: And the TGI (HCC-2998 colon)?
Answer: > 100 µM

Question: And the TGI (OVCAR-3 ovarian)?
Answer: > 100 µM

Question: What about the TGI (ACHN renal) of the same molecule?
Answer: > 100 µM

Question: With COc1ccc(C2=NN(c3ccccc3)C[N+](c3ccc(OC)cc3)=N2)cc1 as the molecule, how does the TGI (SR leukemia) read?
Answer: > 100 µM

Question: And the TGI (OVCAR-5 ovarian)?
Answer: 70 µM

Question: And the TGI (UO-31 renal)?
Answer: 71.1 µM

Question: And the TGI (UACC-257 melanoma)?
Answer: > 100 µM

Question: What about the TGI (OVCAR-8 ovarian) of the same molecule?
Answer: > 100 µM

Question: What about the TGI (HCC-2998 colon) of the same molecule?
Answer: > 100 µM

Question: And the TGI (OVCAR-3 ovarian)?
Answer: 46 µM

Question: What about the TGI (ACHN renal) of the same molecule?
Answer: > 100 µM

Question: For CCOP(=O)(OCC)C1CC(n2cc(C)c(=O)[nH]c2=O)OC1CO (stereo not drawn), which TGI (SR leukemia) is on record?
Answer: > 100 µM

Question: What about the TGI (SNB-75 CNS) of the same molecule?
Answer: > 100 µM

Question: What about the TGI (OVCAR-5 ovarian) of the same molecule?
Answer: > 100 µM

Question: And the TGI (UO-31 renal)?
Answer: > 100 µM

Question: And the TGI (UACC-257 melanoma)?
Answer: > 100 µM

Question: And the TGI (OVCAR-8 ovarian)?
Answer: > 100 µM

Question: What about the TGI (HCC-2998 colon) of the same molecule?
Answer: > 100 µM

Question: And the TGI (OVCAR-3 ovarian)?
Answer: > 100 µM

Question: And the TGI (ACHN renal)?
Answer: > 100 µM

Question: With NNC(=O)Cn1c2ccc(Br)cc2c2nc3ccccc3nc21 as the molecule, how does the TGI (COLO 205 colon) read?
Answer: > 100 µM

Question: And the TGI (SR leukemia)?
Answer: > 100 µM

Question: And the TGI (SNB-75 CNS)?
Answer: > 100 µM

Question: What about the TGI (OVCAR-5 ovarian) of the same molecule?
Answer: > 100 µM

Question: What about the TGI (UO-31 renal) of the same molecule?
Answer: > 100 µM

Question: What about the TGI (UACC-257 melanoma) of the same molecule?
Answer: > 100 µM

Question: And the TGI (OVCAR-8 ovarian)?
Answer: > 100 µM

Question: What about the TGI (OVCAR-3 ovarian) of the same molecule?
Answer: > 100 µM

Question: And the TGI (ACHN renal)?
Answer: > 100 µM

Question: What does the source list for O=c1[nH]nc(-c2ccccc2)n1/N=C/c1cccnc1?
Answer: TGI (SR leukemia): > 100 µM; TGI (SNB-75 CNS): > 100 µM; TGI (OVCAR-5 ovarian): > 100 µM; TGI (UO-31 renal): > 100 µM; TGI (UACC-257 melanoma): > 100 µM; TGI (OVCAR-8 ovarian): > 100 µM; TGI (HCC-2998 colon): > 100 µM; TGI (OVCAR-3 ovarian): > 100 µM; TGI (ACHN renal): > 100 µM

Question: COC(=O)C(CSSC[C@H](N/C(C)=C/C(C)=O)C(=O)OC)N/C(C)=C/C(C)=O (stereo partly drawn) was tested. Which TGI (COLO 205 colon) did it give?
Answer: > 100 µM

Question: And the TGI (SNB-75 CNS)?
Answer: > 100 µM

Question: What about the TGI (OVCAR-5 ovarian) of the same molecule?
Answer: 39.2 µM

Question: And the TGI (UO-31 renal)?
Answer: > 100 µM

Question: What about the TGI (UACC-257 melanoma) of the same molecule?
Answer: > 100 µM

Question: And the TGI (OVCAR-8 ovarian)?
Answer: 0.0686 µM

Question: What about the TGI (OVCAR-3 ovarian) of the same molecule?
Answer: 88.9 µM

Question: And the TGI (ACHN renal)?
Answer: 17.1 µM
